Reference: US8003609B2, “Method for ameliorating pain by modification of NMDA receptors through inhibition of Src” (The Hospital for Sick Children, priority 2004, dated 2011)

Tests used:
[1] = system: Src association with the NMDAR complex; experiment: co-immunoprecipitation of Src with the NMDAR complex in cultured hippocampal neurons; conditions: 50 μg/ml, 48 hours
ND2 = experiment: immunoblots of total soluble protein from chloramphenicol-treated hippocampal neurons, ND2; conditions: 50 μg/ml, 48 hours treatment
[2] = system: cultured hippocampal neurons; assay type: cell-based, rat
Description: The dequenching response evoked by bath-applied FCCP (2 μM) in neurons from chloramphenicol-treated or control cultures was assessed. […] Nevertheless, it was noted that the intracellular solution used for all whole-cell recordings contained 2 mM Mg-ATP, so that the level of intracellular ATP was equal in all cells throughout the experiments.

cuff-induced allodynia = cuff-induced allodynia in wild-type and Src kinase null mice, paw withdrawal threshold; assay type: in vivo; conditions: 100 pmol intravenous injection
Excerpt: Pain induced by cuff implantation, in a laboratory animal such as a rat or mouse, is an art-accepted model of neuropathic pain. Generally, in cuff implantation a nerve root in the sciatic nerve leading to a hind paw is tied off by surgical implantation of a “cuff”, for example, a polyethylene ring. Over a period of time the nerve degenerates and a neuropathic pain pattern develops. A control is created by subjecting another group of animals to “sham surgery”, a procedure wherein the animals receive the same type of surgery as cuff implantation without the physical implantation of the cuff. After a period of time, the paw is stimulated by a series of filaments or exposure to a small amount of moderate heat. Pain is measured by observation of “paw withdrawal”, in general, if the animal lifts the paw and the time it takes to do so. Typically, an animal not experiencing neuropathic pain will not respond to the stimuli. When testing using filaments, threshold is defined in terms of force. […] This testing method is described in the art; Ren Physiological Behavior 67:711-716 1999 and Guo et al. The Journal of Neuroscience 22(14):6208-6217 2002. Another experiment was performed to compare cuff-induced allodynia in wild-type mice to Src kinase null mice (Src kinase knock-out mice). The PWT was tested in the mice prior to surgery. […]

[3] = system: NR2B subunit of NMDA receptors; experiment: NR2B tyrosine phosphorylation after formalin injection; assay type: in vivo; conditions: intrathecal administration; 60 minutes post-injection of formalin
Description: It can be seen that by 60 minutes post-injection of formalin, tyrosine phosphorylation of the NR2B subunit increases.

[4] = system: 2.5% formalin-induced flinching or biting/licking behaviors; experiment: formalin test (inflammatory pain); assay type: in vivo, rat; conditions: 0.1 pmol intravenously 45 minutes before testing; compared to HIV-Tat alone and saline; over an hour
Description: Male Sprague-Dawley rats 150-200 g were used for all experiments. Rats were housed in pairs, maintained on a 12/12 hour light/dark cycle, and allowed free access to food and water. All experiments were conducted during 10 am and […]. Peptide Src40-49Tat (TSUDAPI-1; SEQ ID NO:2) or Tat alone (amino acid residues 1-11 of SEQ ID NO:2) was dissolved in sterilized saline. Peptide or saline was injected intravenously at a volume 1 ml/Kg into rat's tail 45 minutes before behavioral testing. Injections were done under brief halothane anesthesia and rats were returned to the cages after injections. The formalin test was performed as previously described (Liu et al. European Journal of Pharmacology 408(2):143-152 2000). Rats were placed in a plexiglass observation chamber for an initial 20 minutes to allow acclimatization to the testing environment. Formalin 2.5% was injected subcutaneously in a volume of […] into the plantar aspect of the hind paw. Following injections, rats were returned to the observation chamber and monitored for flinching behaviors (lifting, shaking and overt flinching with a ripple over the haunch) and biting/licking time. […] Recorded episodes were not corrected, thus values represent about half of the total behaviors expressed. FIGS. 7A-D show the effect of Src40-49Tat (0.1 pmol) on 2.5% formalin induced flinching or biting/licking behaviors. […]

[5] = system: cuff-induced tactile allodynia; experiment: cuff implantation tactile allodynia, paw withdrawal threshold; assay type: in vivo, mice
Excerpt: Pain induced by cuff implantation, in a laboratory animal such as a rat or mouse, is an art-accepted model of neuropathic pain. Generally, in cuff implantation a nerve root in the sciatic nerve leading to a hind paw is tied off by surgical implantation of a “cuff”, for example, a polyethylene ring. Over a period of time the nerve degenerates and a neuropathic pain pattern develops. A control is created by subjecting another group of animals to “sham surgery”, a procedure wherein the animals receive the same type of surgery as cuff implantation without the physical implantation of the cuff. After a period of time, the paw is stimulated by a series of filaments or exposure to a small amount of moderate heat. Pain is measured by observation of “paw withdrawal”, in general, if the animal lifts the paw and the time it takes to do so. Typically, an animal not experiencing neuropathic pain will not respond to the stimuli. When testing using filaments, threshold is defined in terms of force. […] This testing method is described in the art; Ren Physiological Behavior 67:711-716 1999 and Guo et al. The Journal of Neuroscience 22(14):6208-6217 2002.
In this experiment, tactile allodynia was induced in a group of mice by cuff implantation and symptoms were observed as early as day 3 post-surgery. Allodynia was allowed to fully develop at 8-10 days post-surgery before the “paw withdrawal” tests were performed. A group of mice received an intrathecal (introduced into the space under the arachnoid membrane of the brain or spinal cord) injection of 0.02 pmol of Src40-49Tat (TSUDAPI-1, SEQ ID NO:2), a second group of mice received an intrathecal injection of 0.02 pmol Scramble Src40-49Tat and a third group of mice received an intrathecal injection of saline. “Scramble Src40-49Tat” refers to TSUDAI-1 (SEQ ID NO:2) having a “scrambled” sequence, i.e. having amino acid residues out of order from the normal. Green represents Src40-49Tat (TSUDAPI-1, SEQ ID NO:2), grey represents Scramble Src40-49Tat and red represents saline. […] The reversal was significant at more than 5 hours post injection, with PWT 6.03±1.45 g (Src40-49Tat) versus 1.7±0.47 g (scrambled Src40-49Tat)(p<0.05).
Another group of mice received an intravenous injection of 10 pmol/g of Src40-49Tat (TSUDAPI-1, SEQ ID NO:2) and a second group of mice received an intravenous injection of saline. Green represents Src40-49Tat (TSUDAPI-1, SEQ ID NO:2) and red represents saline. […] The anti-allodynic effect of the peptide (SEQ ID NO:2) peaked at 2 hours following injection, with PWT 9.28±2.55 g (Src40-49Tat) versus 1.95±0.617 g (saline) (p<0.05).

NR2B subunit = experiment: nerve-injury induced phosphorylation of NR2B in Src kinase null mice; assay type: in vivo
[6] = system: NMDA receptor NR2B subunits; experiment: NR2B tyrosine phosphorylation in spinal cord dorsal horn of cuffed rats; assay type: in vivo, rat; conditions: intrathecal injection of 0.02 pmol
Excerpt: This graph represents quantification of band (from western blots) density in three experiments.

[7] = intravenous injection of 10 pmol/g

| Molecule | co-immunoprecipitation of Src with the NMDAR complex [1] | level of ND2 in the cultures reduced by (ND2) | functioning of the neurons [2] | PWT in null mice (cuff-induced allodynia; Src kinase null mice) | PWT after treatment (cuff-induced allodynia; wild-type mice, from 0.008±0.0 g before) [g] | formalin-induced increase of NR2B tyrosine phosphorylation [3] | pain behaviors in the formalin test [4] | PWT ([5]; intrathecal 0.02 pmol, more than 5 hours post injection) [g] | onset of the reversal effect ([5]; intrathecal injection of 0.02 pmol) | reversal of allodynia ([5]; intrathecal injection of 0.02 pmol, 8-10 days post-surgery) | PWT ([5]; intravenous 10 pmol/g, 2 hours following injection) [g] | onset of the reversal effect [5, 7] | reversal of allodynia [5, 7] | time of peak anti-allodynic effect following injection [5, 7] [h] | phosphorylation of NR2B subunits (NR2B subunit) | increase in tyrosine phosphorylation of NR2B subunits in spinal cord dorsal horn [6] |
| --- | --- | --- | --- | --- | --- | --- | --- | --- | --- | --- | --- | --- | --- | --- | --- | --- |
| O=C(N[C@H](CO)[C@H](O)c1ccc([N+](=O)[O-])cc1)C(Cl)Cl [chloramphenicol] | suppress | more than 95% | did not detectably compromise |  |  |  |  |  |  |  |  |  |  |  |  |  |
| Src40-49Tat: SUDAPI-1 combined with the carrier peptide, HIV-Tat (SEQ ID NO:2) (YGRKKRRQRRRKPASADGHR; listed as Homo sapiens) |  |  |  | did not further increase | 0.23 ± 0.05 | significantly reduced | reduce pain behaviors | 6.03 ± 1.45 | as early as one hour | significantly reversed allodynia | 9.28 ± 2.55 | as early as one hour | significantly reversed allodynia | 2 | did not further decrease | significantly reversed |
